Where two headings read alike, the source gives them in different places.
Key:
[1] = Animal study: plasma pharmacokinetics of Compound A and metabolite Compound B after sublingual or oral administration of the Compound A solid composition; conditions: for Cmax, relative difference in exposure sublingual compared to oral / AUC, relative difference in exposure sublingual compared to oral: 100*sublingual value/oral value; for AUC, relative difference in exposure sublingual compared to oral: AUC for Compound A; for AUC(0-t) / AUC / Cmax / Tmax / half-life / concentration at 5 min: male, beagle, dog, plasma, 13 mg; for AUC(0-t): AUC (0-8 h); for AUC(0-t) / AUC / Cmax / Tmax / half-life: Example 6 tablet; for AUC: zero to infinity; for half-life: T½; for concentration at 5 min: plasma concentration at 5 minutes
Description: (§3) Two male Beagle dogs weighing 13-15 kg were used in the study. At one occasion the dogs were administered the sublingual composition under the tongue (i.e. as intended) and at the other occasion, after a washout period of 7 days, they were given the sublingual composition orally (i.e. into the stomach by gavage together with 40 ml of water).
(§4) The dogs were fasted overnight and until four hours after dose administration. Water was allowed ad lib until one hour before dosing and after three hours following dosing. To minimize the chance of swallowing during the sublingual study occasion, the dogs were anesthetized by intravenous bolus injection of Diprivan (10 mg/ml, AstraZeneca, Sweden) 0.8-1 ml/kg, followed by intubation, connection to a respiratory ventilator (Servo ventilator 900C, Siemens-Elema AB, Sweden) and capnograph (RespSense, MedAir AB, Sweden) and given additional anesthesia with 1.5% Isofluran (Isoba Vet., Schering-Plough AB, Sweden). The dogs were kept anesthetized for one hour after the administration of the sublingual composition under the tongue. The dogs were not anesthetized during the oral administration occasion.
(§5) Venous blood samples (2 mL) were collected before (0) and after 5, 15, 30, 45 minutes, 1.0, 1.5, 2.0, 3.0, 4.0, 6.0 and 8.0 hours after dosing. The samples were collected into vacuum tubes (BD Vacutainer K2-EDTA, Becton&Dickinson AB, Sweden), placed on ice and centrifuged for 10 minutes (4° C., 1500 g) within 30 minutes after sampling. The plasma was then transferred to 1.8 ml Nunc Cryo tubes (InterMed A/S, Denmark) and frozen (−20° C.) pending analysis.
(§6) The plasma samples (50 μL) were analyzed for Compound A and its metabolite Compound B by a standard LC-MS/MS analytical method. The determinations of the concentration of Compound A and Compound B in plasma was performed by liquid-liquid extraction followed by reversed-phase liquid chromatography and tandem mass spectrometry. Determinations of both Compound A and Compound B were performed in the range 0.8 to 200 nmol/L. Samples outside the range of determination were diluted up to 10 times. Quality control samples at three concentrations were interspersed with the study samples at 2.40, 16.0 and 160 nmol/L. The internal standard used in the assay was Deuterium labeled Compound A (AstraZeneca R&D, Sweden).
(§7) Exposure of animals to Compound A and it's metabolite Compound B expressed as area under the curve from time zero to the last sampling time, AUC(0-8 h), was obtained by means of non compartmental analysis in WinNonlin (version 4.0, Pharsight Corporation, USA). The maximum concentration, Cmax, and time of maximum concentration, Tmax, were direct observations from the plasma concentration versus time data. AUC(0-8 h) was calculated by means of the linear up-log down method. The area under the curve from zero to infinity, AUC, was calculated in a similar manner, with extrapolation from time of the last observed concentration, tlast, to infinity by adding the ratio of Cpred (predicted plasma concentration at tlast) and terminal slope factor. The terminal slope factor and subsequently the terminal half life (T1/2) were estimated in WinNonlin by log linear regression of the terminal phase (4 data points were used) of the plasma concentration time curve.

[2] = system: NNR subtypes that characterize the human ganglia; experiment: Nicotinic function in adrenal chromaffin tissue; type: cell-based; conditions: ganglionic NNR subtypes
Source text: (§1) It is advantageous that the treatment or prevention of diseases, disorders and conditions occurs without appreciable adverse side effects (e.g., significant increases in blood pressure and heart rate, significant negative effects upon the gastro-intestinal tract, and significant effects upon skeletal muscle). […] Thus, Compound A is capable of treating and/or preventing diseases, disorders and conditions without eliciting significant side effects associated with activity at ganglionic and neuromuscular sites.

muscle-type NNRs = experiment: Nicotinic function in cell preparations expressing muscle-type NNRs; type: cell-based; conditions: skeletal muscle NNR
Source text: as §1

[3] = Solubility / Biopharmaceutical Classification System (BCS) class; type: physicochemical
Source text: (§2) Thus, the dissolution and intestinal permeability is not the reason for the observed high intersubject variability in plasma concentrations of Compound A.

[4] = dose range 2 to 320 mg, healthy volunteers; cited from earlier work
[5] = Intestinal permeability (fraction of an oral dose absorbed); type: in vivo
Source text: as §2

[6] = Beagle dogs, cited from earlier work
[7] = male, beagle, dog, in vivo, 13 mg
Description: as §3, §4, §5, §6, §7

in vivo = conditions: male, beagle, dog, 13 mg; for AUC(0-t): AUC (0-8 h)
Description: as §3, §4, §5, §6, §7

[8] = Sublingual, Subject 1, anesthetized dog, 13 mg Compound A
[9] = Sublingual, Subject 2, anesthetized dog, 13 mg Compound A
[10] = po, Oral (gavage), Subject 1, dog, 13 mg Compound A
[11] = po, Oral (gavage), Subject 2, dog, 13 mg Compound A

For `CN[C@@H](C)C/C=C/c1cncc(OC(C)C)c1` [Compound A, (2S)-(4E)-N-methyl-5-(3-(5-isopropoxypyridin)yl)-4-penten-2-amine], the “Cmax, relative difference in exposure sublingual compared to oral” value ([1]; Subject 1, dog) was 740 % difference, the “AUC, relative difference in exposure sublingual compared to oral” value ([1]; Subject 1, dog) was 550 % difference and the “Cmax, relative difference in exposure sublingual compared to oral” value ([1]; Subject 2, dog) was 510 % difference. The “AUC, relative difference in exposure sublingual compared to oral” value ([1]; Subject 2, dog) was 520 % difference, the AUC(0-t) [1, 8] was 2 µM·h and the AUC(0-t) [1, 9] was 1.5 µM·h. The AUC [1, 8] was 2.1 µM·h, the AUC [1, 9] was 1.5 µM·h and the Cmax [1, 8] was 1400 nM. The Cmax [1, 9] was 610 nM, the Tmax [1, 8] was 30 min and the Tmax [1, 9] was 60 min. For the same compound, the half-life [1, 8] was 78 min, the half-life [1, 9] was 84 min and the concentration at 5 min ([1]; other: sublingual, 5 minutes after sublingual administration, Subject 1, dog) was about 200 nM. The concentration at 5 min ([1]; other: sublingual, 5 minutes after sublingual administration, Subject 2, dog) was about 60 nM, the AUC(0-t) [1, 10] was 0.37 µM·h and the AUC(0-t) [1, 11] was 0.28 µM·h. It also gave an AUC [1, 10] of 0.38 µM·h, an AUC [1, 11] of 0.29 µM·h and a Cmax [1, 10] of 190 nM. The Cmax [1, 11] was 120 nM, the Tmax ([1]; po, Oral (gavage), Subject 1, dog, 13 mg (as base) Compound A hydroxybenzoate salt) was 45 min and the Tmax [1, 11] was 60 min. It also gave a half-life [1, 10] of 78 min, a half-life [1, 11] of 78 min and a concentration at 5 min ([1]; po, 5 minutes after oral administration, Subject 1, dog) of about 2 nM. For the same compound, the concentration at 5 min ([1]; po, 5 minutes after oral administration, Subject 2, dog) was about 1.5 nM, the “ability to elicit nicotinic function in adrenal chromaffin tissue” value [2] was “lack of ability to elicit nicotinic function” and the “ability to elicit nicotinic function in cell preparations expressing muscle-type NNRs” value (muscle-type NNRs) was “lack of ability to elicit nicotinic function”. For the same compound, the “Biopharmaceutical Classification System (BCS) class” value [3] was “Class I”, the solubility ([3]; highest dose strength is easily dissolved in 250 ml of aqueous media at all physiological pH values) was “very good solubility” and the “degree of exposure after oral administration” value [4] was “intersubject variability in the degree of exposure”. For the same compound, the “intestinal permeability: oral dose absorbed” value [5] was “more than 90%”, the oral bioavailability ([6]; oral) was “about 30%” and the “total plasma clearance relative to hepatic blood flow” value [6] was “markedly higher than the hepatic blood flow”.
For `CC(C)Oc1cncc(/C=C/C[C@H](C)N)c1` [Compound B, (4E)-5-(3-(5-isopropoxypyridin)yl)-4-penten-2-amine], the “AUC (0-8 h)” value [7] was 590 nmol·h/L, the Cmax [7] was 110 nM and the Tmax [7] was 6 h. The “decrease of exposure (Cmax, AUC 0-8 h) following sublingual compared to oral administration of Compound A” value [7] was 30-70%, the “AUC (0-8 h)” value ([7]; po) was 1000 nmol·h/L and the Cmax ([7]; po) was 230 nM. It also gave a Tmax ([7]; po) of 1 h, an AUC(0-t) (in vivo) of 0.51 µM·h and a Cmax (in vivo) of 99 nM. The Tmax (in vivo) was 4 h, the AUC(0-t) (in vivo; po) was 1 µM·h and the Cmax (in vivo; po) was 210 nM. The Tmax (in vivo; po) was 1.5 h.

From patent US20110130428A1, “Sublingual Compositions Comprising (2S) - (4E) -N-Methyl-5- (3- (5-Isopropoxypyridin) YL)-4-Penten-2-Amine” (ASTRAZENECA AB, priority 2008, published 2011)
